This is an account of results in patent US9468661B2, “Pyrrolidine derivatives and their use as complement pathway modulators” (priority 2012, dated 2016).

Molecules are shown by their SMILES.

Usually IC50 stands for the midpoint of a concentration-inhibition curve.

The target of one assay is human factor D (Homo sapiens (Human), UniProt P00746). In words: biochemical. Type of assay: biochemical. The note with it: Factor D inhibition data using Method 1; recombinant human factor D 10 nM, substrate Z-Lys-thiobenzyl, fluorescence; read-out: IC50. On the procedure: Human Complement Factor D Assay: Method 1
Chain of human factor D (P00746 26-253): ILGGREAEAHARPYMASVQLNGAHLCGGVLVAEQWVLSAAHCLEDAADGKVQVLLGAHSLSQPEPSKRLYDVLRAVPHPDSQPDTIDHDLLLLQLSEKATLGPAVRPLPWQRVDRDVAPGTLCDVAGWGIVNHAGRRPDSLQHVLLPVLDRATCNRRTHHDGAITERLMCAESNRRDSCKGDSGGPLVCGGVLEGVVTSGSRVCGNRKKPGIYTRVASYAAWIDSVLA
Recombinant human factor D (expressed in E. coli and purified using standard methods) at 10 nM concentration is incubated with test compound at various concentrations for 1 hour at room temperature in 0.1 M Hepes buffer, pH 7.5, containing 1 mM MgCl2, 1 M NaCl and 0.05% CHAPS. A synthetic substrate Z-Lys-thiobenzyl and 2,4-dinitrobenzenesulfonyl-fluoresceine are added to final concentrations of 200 μM and 25 μM, respectively. The increase in fluorescence is recorded at excitation of 485 nm and emission at 535 nm in a microplate spectrofluorimeter. IC50 values are calculated from percentage of inhibition of complement factor D-activity as a function of test compound concentration.
For the compound `CC1(C)[C@H](CNC(=O)[C@@H]2C[C@H]3C[C@H]3N2C(=O)Cn2nc(C(N)=O)c3ccncc32)C1(Cl)Cl` [Example 102, 1-(2-{(1R,3S,5R)-3-[((R)-2,2-Dichloro-3,3-dimethyl-cyclopropylmethyl)-carbamoyl]-2-aza-bicyclo[3.1.0]hex-2-yl}-2-oxo-ethyl)-1H-pyrazolo[3,4-c]pyridine-3-carboxylic acid amide], the IC50 worked out at 118 nM. As for `CC(=O)c1nn(CC(=O)N2[C@@H]3C[C@@H]3C[C@H]2C(=O)NC[C@H]2CC2(Cl)Cl)c2ccc(OCc3ncccc3F)cc12` [Example 99, (1R,3S,5R)-2-{2-[3-Acetyl-5-(3-fluoro-pyridin-2-ylmethoxy)-indazol-1-yl]-acetyl}-2-aza-bicyclo[3.1.0]hexane-3-carboxylic acid ((R)-2,2-dichloro-cyclopropylmethyl)-amide], the IC50 turned out to be 32 nM. Consider `CC(=O)c1nn(CC(=O)N2[C@@H]3C[C@@H]3C[C@H]2C(=O)NCC2CCC(C)(C)CC2)c2cnccc12` [Example 4, (1R,3S,5R)-2-[2-(3-Acetyl-pyrazolo[3,4-c]pyridin-1-yl)-acetyl]-2-aza-bicyclo[3.1.0] hexane-3-carboxylic acid (4,4-dimethyl-cyclohexylmethyl)-amide], for which the IC50 is 955 nM. On the same count and under the same terms, for `NC(=O)c1nn(CC(=O)N2[C@@H]3C[C@@H]3C[C@H]2C(=O)NC[C@H]2CC2(Cl)Cl)c2cc(Cl)ccc12` [Example 114, 6-Chloro-1-(2-{(1R,3S,5R)-3-[((R)-2,2-dichloro-cyclopropylmethyl)-carbamoyl]-2-aza-bicyclo[3.1.0]hex-2-yl}-2-oxo-ethyl)-1H-indazole-3-carboxylic acid amide] the value was 40 nM; for `CC(=O)c1nn(CC(=O)N2[C@@H]3C[C@@H]3C[C@H]2C(=O)N[C@H](C)[C@H]2CC2(Cl)Cl)c2ccc(OCc3cc(C)[nH]n3)cc12` [Example 64, (1R,3S,5R)-2-{2-[3-Acetyl-5-(5-methyl-1H-pyrazol-3-ylmethoxy)-indazol-1-yl]-acetyl}-2-aza-bicyclo[3.1.0]hexane-3-carboxylic acid [(R)-1-((R)-2,2-dichloro-cyclopropyl)-ethyl]-amide], 3 nM. On to `CC1CCCC1CNC(=O)[C@@H]1C[C@H]2C[C@H]2N1C(=O)Cn1nc(C(N)=O)c2ccncc21` (single isomer, unassigned; dia 2) [Example 86], for which the IC50 worked out at 610 nM. On to `CC(=O)c1nn(CC(=O)N2[C@@H]3C[C@@H]3C[C@H]2C(=O)NC[C@H]2CC2(Cl)Cl)c2ccc(OCc3nccs3)cc12` [Example 106, (1R,3S,5R)-2-{2-[3-Acetyl-5-(thiazol-2-ylmethoxy)-indazol-1-yl]-acetyl}-2-aza-bicyclo[3.1.0]hexane-3-carboxylic acid ((R)-2,2-dichloro-cyclopropylmethyl)-amide], for which the IC50 was 5 nM. As to `CC(=O)c1nn(CC(=O)N2[C@@H]3C[C@@H]3C[C@H]2C(=O)NCC2CCCCC2(C)C)c2cnccc12` (single isomer, unassigned; dia 1) [Example 21], the IC50 amounted to 118 nM. Consider `CC1CCCC(CNC(=O)[C@@H]2C[C@H]3C[C@H]3N2C(=O)Cn2nc(C(N)=O)c3ccncc32)C1` (single isomer, unassigned; dia 3) [Example 117], for which the IC50 is 307 nM. As to `Cc1cc2c(C(N)=O)nn(CC(=O)N3[C@@H]4C[C@@H]4C[C@H]3C(=O)N[C@H](C)[C@H]3CC3(Cl)Cl)c2c(C)n1` [Example 45, 1-(2-{(1R,3S,5R)-3-[(R)-1-((R)-2,2-Dichloro-cyclopropyl)-ethylcarbamoyl]-2-aza-bicycio[3.1.0]hex-2-yl}-2-oxo-ethyl)-5,7-dimethyl-1H-pyrazolo[3,4-c]pyridine-3-carboxylic acid amide], the concentration for half-maximal inhibition (IC50) amounted to 43 nM.

Staying with this assay, now noted: IC50, Factor D inhibition data using Method 1; recombinant human factor D 10 nM, substrate Z-Lys-thiobenzyl, fluorescence.
Take `CC(=O)c1nn(CC(=O)N2[C@@H]3C[C@@H]3C[C@H]2C(=O)NC(C)C2CC2(Cl)Cl)c2ccc(OCc3ncccn3)cc12` (single isomer, unassigned; dia 3) [Example 34]: the IC50 was 513 nM.
